Values of other authors in US8571804B2, “Disease treatment by predicting drug association” (Pharnext, priority 2007, dated 2013).

Legend:
[1] = tested on: PMP22-transgenic CMT1A rat model

O=C1O[C@H]([C@@H](O)CO)C(O)=C1O [ascorbic acid]
clinical features (CMT animal models): improve clinical features

CN(C)c1ccc([C@H]2C[C@]3(C)[C@@H](CC[C@]3(O)CCCO)[C@@H]3CCC4=CC(=O)CCC4=C32)cc1 [onapristone]
clinical symptoms ([1]; compared with placebo-treated controls): significantly improved clinical symptoms
expression of PMP22 protein ([1]; transgenic rodents, antiprogestin treatment): decreased expression of PMP22 protein
